# Assays:
# Format in all cases: in vivo
# [1] = test system: Johnsongrass (Sorghum halepense); test: Postemergence herbicidal activity, johnsongrass; settings: rate of application 0.3 Kg/Ha, rated after 12-17 days
# Procedure: (§1) The benzofused heterocyclic compounds of this invention were tested for pre- and postemergence herbicidal activity using a variety of crops and weeds. The test plants included soybean (Glycine max var. Winchester), field corn (Zea mays var. Pioneer 3732), wheat (Triticum aestivum var. Lew), morningglory (Ipomea lacunosa or Ipomea hederacea), velvetleaf (Abutilon theophrasti), green foxtail (Setaria viridis), Johnsongrass (Sorghum halepense), blackgrass (Aloepecurus myosuroides), common chickweed (Stellaria media), and common cocklebur (Xanthium strumarium L.).
# (§2) For preemergence testing, two disposable fiber flats (8 cm×15 cm×25 cm) for each rate of application of each candidate herbicide were filled to an approximate depth of 6.5 cm with steam-sterilized sandy loam soil. The soil was leveled and impressed with a template to provide five evenly spaced furrows 13 cm long and 0.5 cm deep in each flat. Seeds of soybean, wheat, corn, green foxtail, and johnsongrass were planted in the furrows of the first flat, and seeds of velvetleaf, morningglory, common chickweed, cocklebur, and blackgrass were planted in the furrows of the second flat. The five-row template was employed to firmly press the seeds into place. A topping soil of equal portions of sand and sandy loam soil was placed uniformly on top of each flat to a depth of approximately 0.5 cm. Flats for postemergence testing were prepared in the same manner except that they were planted 9-14 days prior to the preemergence flats and were placed in a greenhouse and watered, thus allowing the seeds to germinate and the foliage to develop.
# (§3) In both pre- and postemergence tests, a stock solution of the candidate herbicide was prepared by dissolving 0.27 g of the compound in 20 mL of water/acetone (50/50) containing 0.5% v/v sorbitan monolaurate. For an application rate of 3000 g/ha of herbicide a 10 mL portion of the stock solution was diluted with water/acetone (50/50) to 45 mL.
# (§4) The preemergence flats were initially subjected to a light water spray. The four flats were placed two by two along a conveyor belt (i.e., the two preemergence followed by the two postemergence flats). The conveyor belt fed under a spray nozzle mounted about ten inches above the post-emergent foliage. The preemergent flats were elevated on the belt so that the soil surface was at the same level below the spray nozzle as the foliage canopy of the postemergent plants. The spray of herbicidal solution was commenced and once stabilized, the flats were passed under the spray at a speed to receive a coverage equivalent of 100 L/ha. At this coverage the application rates are those shown in the above table for the individual herbicidal solutions. The preemergence flats were watered immediately thereafter, placed in the greenhouse and watered regularly at the soil surface. The postemergence flats were immediately placed in the green-house and not watered until 24 hours after treatment with the test solution. Thereafter they were regularly watered at ground level. After 12-17 days the plants were examined and the phytotoxicity data were recorded.
# (§5) Phytotoxicity data were taken as percent control. Percent control was determined by a method similar to the 0 to 100 rating system disclosed in “Research Methods in Weed Science,” 2nd ed., B. Truelove, Ed.; Southern Weed Science Society; Auburn University, Auburn, Ala., 1977.
# [2] = test system: Johnsongrass (Sorghum halepense); test: Preemergence herbicidal activity, johnsongrass; settings: Rate of Application 0.3 Kg/Ha, examined after 12-17 days
# Procedure: as §1, §2, §3, §4, §5
# [3] = test system: blackgrass (Aloepecurus myosuroides); test: Preemergence herbicidal activity, blackgrass; settings: Alopecurus myosuroides, pre-emergence, Rate of Application 0.3 Kg/Ha, examined after 12-17 days, read-out: PREEMERGENCE HERBICIDAL ACTIVITY (% CONTROL) ALOMY
# Procedure: as §1, §2, §3, §4, §5
# [4] = test system: morningglory (Ipomea lacunosa or Ipomea hederacea); test: Preemergence herbicidal activity, morningglory; settings: Rate of Application 0.3 Kg/Ha, examined after 12-17 days
# Procedure: as §1, §2, §3, §4, §5
# [5] = test system: velvetleaf (Abutilon theophrasti); test: Postemergence herbicidal activity, velvetleaf; settings: rate of application 0.3 Kg/Ha, rated after 12-17 days
# Procedure: as §1, §2, §3, §4, §5
# [6] = test system: green foxtail (Setaria viridis); test: Preemergence herbicidal activity, green foxtail; settings: Rate of Application 0.3 Kg/Ha, examined after 12-17 days
# Procedure: as §1, §2, §3, §4, §5
# [7] = test system: soybean (Glycine max var. Winchester); test: Preemergence herbicidal activity, soybean; settings: Rate of Application 0.3 Kg/Ha, examined after 12-17 days
# Procedure: as §1, §2, §3, §4, §5
# [8] = test system: morningglory (Ipomea lacunosa or Ipomea hederacea); test: Postemergence herbicidal activity, morningglory; settings: rate of application 0.3 Kg/Ha, rated after 12-17 days
# Procedure: as §1, §2, §3, §4, §5
# [9] = test system: green foxtail (Setaria viridis); test: Postemergence herbicidal activity, green foxtail; settings: rate of application 0.3 Kg/Ha, rated after 12-17 days
# Procedure: as §1, §2, §3, §4, §5
# [10] = test system: wheat (Triticum aestivum var. Lew); test: Preemergence herbicidal activity, wheat; settings: Rate of Application 0.3 Kg/Ha, examined after 12-17 days
# Procedure: as §1, §2, §3, §4, §5
# [11] = test system: soybean (Glycine max var. Winchester); test: Postemergence herbicidal activity, soybean; settings: rate of application 0.3 Kg/Ha, rated after 12-17 days
# Procedure: as §1, §2, §3, §4, §5
# [12] = test system: field corn (Zea mays var. Pioneer 3732); test: Preemergence herbicidal activity, corn; settings: Rate of Application 0.3 Kg/Ha, examined after 12-17 days
# Procedure: as §1, §2, §3, §4, §5
# [13] = test system: common cocklebur (Xanthium strumarium L.); test: Preemergence herbicidal activity, cocklebur; settings: Rate of Application 0.3 Kg/Ha, examined after 12-17 days
# Procedure: as §1, §2, §3, §4, §5
# [14] = test system: velvetleaf (Abutilon theophrasti); test: Preemergence herbicidal activity, velvetleaf; settings: Rate of Application 0.3 Kg/Ha, examined after 12-17 days
# Procedure: as §1, §2, §3, §4, §5
# [15] = test system: wheat (Triticum aestivum var. Lew); test: Postemergence herbicidal activity, wheat; settings: rate of application 0.3 Kg/Ha, rated after 12-17 days
# Procedure: as §1, §2, §3, §4, §5
# [16] = test system: field corn (Zea mays var. Pioneer 3732); test: Postemergence herbicidal activity, corn; settings: rate of application 0.3 Kg/Ha, rated after 12-17 days
# Procedure: as §1, §2, §3, §4, §5
# [17] = test system: common chickweed (Stellaria media); test: Preemergence herbicidal activity, chickweed; settings: Rate of Application 0.3 Kg/Ha, examined after 12-17 days
# Procedure: as §1, §2, §3, §4, §5
# [18] = test system: common chickweed (Stellaria media); test: Postemergence herbicidal activity, chickweed; settings: rate of application 0.3 Kg/Ha, rated after 12-17 days
# Procedure: as §1, §2, §3, §4, §5
# [19] = test system: common cocklebur (Xanthium strumarium L.); test: Postemergence herbicidal activity, cocklebur; settings: rate of application 0.3 Kg/Ha, rated after 12-17 days
# Procedure: as §1, §2, §3, §4, §5
SMILES,Postemergence herbicidal activity (% control) SORHA [1] [%],PREEMERGENCE HERBICIDAL ACTIVITY (% CONTROL) SORHA [2] [%],PREEMERGENCE HERBICIDAL ACTIVITY (% CONTROL) IPOSS [4] [%],Postemergence herbicidal activity (% control) ABUTH [5] [%],PREEMERGENCE HERBICIDAL ACTIVITY (% CONTROL) SETVI [6] [%],PREEMERGENCE HERBICIDAL ACTIVITY (% CONTROL) STEME [17] [%],Postemergence herbicidal activity (% control) STEME [18] [%],PREEMERGENCE HERBICIDAL ACTIVITY (% CONTROL) SOY [7] [%],Postemergence herbicidal activity (% control) IPOSS [8] [%],Postemergence herbicidal activity (% control) SETVI [9] [%],Postemergence herbicidal activity (% control) XANPE [19] [%],PREEMERGENCE HERBICIDAL ACTIVITY (% CONTROL) WHT [10] [%],Postemergence herbicidal activity (% control) SOY [11] [%],PREEMERGENCE HERBICIDAL ACTIVITY (% CONTROL) CRN [12] [%],PREEMERGENCE HERBICIDAL ACTIVITY (% CONTROL) ABUTH [14] [%],Postemergence herbicidal activity (% control) WHT [15] [%],Postemergence herbicidal activity (% control) CRN [16] [%],further results
"CC(=O)OC(C)(C)c1nc2c(-n3c(=O)cc(C(F)(F)F)n(C)c3=O)c(F)cc(Br)c2o1 [Compound 104, 1-METHYL-6-TRIFLUOROMETHYL-3-[7-BROMO-5-FLUORO-2-(2-METHYLCARBONYLOXYPROP-2-YL)BENZOXAZOL-4-YL]-2,4(1 H,3H)-PYRIMIDINEDIONE]",–,–,–,–,–,–,–,–,–,–,–,–,–,–,–,–,–,"inhibition at 300 g/ha ([1]; Sorghum halepense, post-emergence, read-out: Postemergence herbicidal activity (% control) SORHA): 100%; inhibition at 300 g/ha ([2]; Sorghum halepense, pre-emergence, read-out: PREEMERGENCE HERBICIDAL ACTIVITY (% CONTROL) SORHA): 100%; inhibition at 300 g/ha [3]: 100%; inhibition at 300 g/ha ([4]; Ipomoea, pre-emergence, read-out: PREEMERGENCE HERBICIDAL ACTIVITY (% CONTROL) IPOSS): 100%; inhibition at 300 g/ha ([5]; Abutilon theophrasti, post-emergence, read-out: Postemergence herbicidal activity (% control) ABUTH): 100%; inhibition at 300 g/ha ([6]; Setaria viridis, pre-emergence, read-out: PREEMERGENCE HERBICIDAL ACTIVITY (% CONTROL) SETVI): 100%; inhibition at 300 g/ha ([7]; Glycine max, pre-emergence, read-out: PREEMERGENCE HERBICIDAL ACTIVITY (% CONTROL) SOY): 100%; inhibition at 300 g/ha ([8]; Ipomoea, post-emergence, read-out: Postemergence herbicidal activity (% control) IPOSS): 100%; inhibition at 300 g/ha ([9]; Setaria viridis, post-emergence, read-out: Postemergence herbicidal activity (% control) SETVI): 100%; inhibition at 300 g/ha ([10]; Triticum aestivum, pre-emergence, read-out: PREEMERGENCE HERBICIDAL ACTIVITY (% CONTROL) WHT): 100%; inhibition at 300 g/ha ([11]; Glycine max, post-emergence, read-out: Postemergence herbicidal activity (% control) SOY): 100%; inhibition at 300 g/ha ([12]; Zea mays, pre-emergence, read-out: PREEMERGENCE HERBICIDAL ACTIVITY (% CONTROL) CRN): 100%; inhibition at 300 g/ha ([13]; Xanthium strumarium, pre-emergence, read-out: PREEMERGENCE HERBICIDAL ACTIVITY (% CONTROL) XANPE): 100%; inhibition at 300 g/ha ([14]; Abutilon theophrasti, pre-emergence, read-out: PREEMERGENCE HERBICIDAL ACTIVITY (% CONTROL) ABUTH): 100%; inhibition at 300 g/ha ([15]; Triticum aestivum, post-emergence, read-out: Postemergence herbicidal activity (% control) WHT): 100%; inhibition at 300 g/ha ([16]; Zea mays, post-emergence, read-out: Postemergence herbicidal activity (% control) CRN): 100%"
Cn1c(C(F)(F)F)cc(=O)n(-c2c(F)cc(Cl)c3cc(CCO)oc23)c1=O [Compound 239],80,90,100,100,100,100,100,100,100,100,100,70,95,90,100,60,80,–
CC(=O)OC(C)(C)c1cc2c(Cl)cc(F)c(-n3c(=O)cc(C(F)(F)F)n(C)c3=O)c2o1 [Compound 253],100,100,100,100,100,100,100,100,100,100,100,95,95,100,100,100,100,–
CCOC(=O)c1cc2c(Cl)ccc(-n3c(=O)cc(C(F)(F)F)n(C)c3=O)c2o1 [Compound 268],40,60,95,50,60,20,20,30,90,70,–,30,70,50,100,40,60,PREEMERGENCE HERBICIDAL ACTIVITY (% CONTROL) XANPE [13]: 0%

# From patent publication US6352958B1, “Cycloimido-substituted benzofused heterocyclic herbicides” (FMC Corporation, priority 1997, dated 2002)
